Measured values reported in US7799821B2, “Therapeutic compounds” (Allergan, Inc., priority 2004, dated 2010).
Like-named read-outs stand apart in the source and are kept apart here.

How the values were obtained:
hEP3A/Gqi5 = target: T1, hEP3A/Gqi5 (Homo sapiens, UniProt P43115); assay: FLIPR calcium signal, hEP3A; assay type: cell-based; conditions: FLIPR Ca2+ signal, HEK-293(EBNA); read-out: FUNCTIONAL EC50 HEP3A
T1 construct: expressed in transfected cells; host or cells: HEK-293(EBNA)
T1 sequence (P43115 1-390): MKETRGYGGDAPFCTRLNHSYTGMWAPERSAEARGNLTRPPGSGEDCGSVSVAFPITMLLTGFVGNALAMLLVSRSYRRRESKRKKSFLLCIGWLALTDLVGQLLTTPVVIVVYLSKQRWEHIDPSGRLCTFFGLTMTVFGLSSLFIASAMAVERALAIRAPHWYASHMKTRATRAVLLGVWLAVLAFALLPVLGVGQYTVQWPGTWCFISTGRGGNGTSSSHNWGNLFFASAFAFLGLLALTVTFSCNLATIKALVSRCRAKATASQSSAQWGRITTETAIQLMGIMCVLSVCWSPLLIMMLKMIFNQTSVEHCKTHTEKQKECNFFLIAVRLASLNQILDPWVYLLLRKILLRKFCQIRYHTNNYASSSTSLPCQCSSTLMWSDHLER
Procedure, shortened: (§1)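 HEK-293(EBNA) cells stably expressing the recombinant human receptor were loaded with 2 μM Fluo-4 AM for 45 min and read on FLIPR at 37° C in HBSS-HEPES pH 7.4. Peak fluorescence rise was expressed relative to buffer and standard agonist controls (BW245C, PGE2 or U-46619 by receptor); compounds were run 10^−5 to 10^−11 M in duplicate, n≧3.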

hEP2/Gqs5 = target: T2, hEP2/Gqs5 (Homo sapiens, UniProt P43116); assay: FLIPR calcium signal, hEP2; assay type: cell-based
T2 construct: expressed in transfected cells; host or cells: HEK-293(EBNA)
T2 sequence (P43116 whole entry): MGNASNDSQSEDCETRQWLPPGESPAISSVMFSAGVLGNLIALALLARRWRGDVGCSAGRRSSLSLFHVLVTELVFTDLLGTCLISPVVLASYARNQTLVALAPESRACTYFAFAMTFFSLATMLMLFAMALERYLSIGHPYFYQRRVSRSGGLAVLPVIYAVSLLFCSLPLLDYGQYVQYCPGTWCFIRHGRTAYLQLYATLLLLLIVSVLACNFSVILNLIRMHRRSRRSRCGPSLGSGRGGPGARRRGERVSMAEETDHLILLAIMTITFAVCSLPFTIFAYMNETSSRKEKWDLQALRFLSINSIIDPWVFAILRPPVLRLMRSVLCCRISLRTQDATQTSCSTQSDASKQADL
Procedure, shortened: as §1

hDP/Gqs5 = target: T3, hDP/Gqs5 (Homo sapiens, UniProt Q13258); assay: FLIPR calcium signal, hDP; assay type: cell-based; conditions: FLIPR Ca2+ signal, HEK-293(EBNA); read-out: FUNCTIONAL EC50 HDP
T3 construct: expressed in transfected cells; host or cells: HEK-293(EBNA)
T3 sequence (Q13258 1-359): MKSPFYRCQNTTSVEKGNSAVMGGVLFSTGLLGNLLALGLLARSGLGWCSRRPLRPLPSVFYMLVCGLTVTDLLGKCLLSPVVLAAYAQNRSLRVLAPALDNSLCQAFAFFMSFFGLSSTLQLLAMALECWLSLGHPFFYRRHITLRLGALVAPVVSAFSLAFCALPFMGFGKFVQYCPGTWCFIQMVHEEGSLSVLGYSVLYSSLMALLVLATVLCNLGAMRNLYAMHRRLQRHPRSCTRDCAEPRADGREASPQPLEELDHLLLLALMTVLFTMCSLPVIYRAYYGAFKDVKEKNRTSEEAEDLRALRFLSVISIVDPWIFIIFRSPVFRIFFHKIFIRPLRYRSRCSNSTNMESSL
Experimental: (§2) HEK-293(EBNA) cells, stably expressing one type or subtype of recombinant human prostaglandin receptors (prostaglandin receptors expressed: hDP/Gqs5; hEP1; hEP2/Gqs5; hEP3A/Gqi5; hEP4/Gqs5; hFP; hIP; hTP), were cultured in 100 mm culture dishes in high-glucose DMEM medium containing 10% fetal bovine serum, 2 mM 1-glutamine, 250 μg/ml geneticin (G418) and 200 μg/ml hygromycin B as selection markers, and 100 units/ml penicillin G, 100 μg/ml streptomycin and 0.25 μg/ml amphotericin B. • (b) Calcium Signal Studies on the FLIPR™
(§3) Cells were seeded at a density of 5×10^4 cells per well in Biocoat® Poly-D-lysine-coated black-wall, clear-bottom 96-well plates (Becton-Dickinson) and allowed to attach overnight in an incubator at 37° C. Cells were then washed two times with HBSS-HEPES buffer (Hanks Balanced Salt Solution without bicarbonate and phenol red, 20 mM HEPES, pH 7.4) using a Denley Cellwash plate washer (Labsystems). After 45 minutes of dye-loading in the dark, using the calcium-sensitive dye Fluo-4 AM at a final concentration of 2 μM, plates were washed four times with HBSS-HEPES buffer to remove excess dye leaving 100 μl in each well. Plates were re-equilibrated to 37° C. for a few minutes.
(§4) Cells were excited with an Argon laser at 488 nm, and emission was measured through a 510-570 nm bandwidth emission filter (FLIPR™, Molecular Devices, Sunnyvale, Calif.). Drug solution was added in a 50 μl volume to each well to give the desired final concentration. The peak increase in fluorescence intensity was recorded for each well. On each plate, four wells each served as negative (HBSS-HEPES buffer) and positive controls (standard agonists: BW245C (hDP); PGE2 (hEP1; hEP2/Gqs5; hEP3A/Gqi5; hEP4/Gqs5); PGF2α (hFP); carbacyclin (hIP); U-46619 (hTP), depending on receptor). The peak fluorescence change in each drug-containing well was then expressed relative to the controls.
(§5) Compounds were tested in a high-throughput (HTS) or concentration-response (CoRe) format. In the HTS format, forty-four compounds per plate were examined in duplicates at a concentration of 10^−5 M. To generate concentration-response curves, four compounds per plate were tested in duplicates in a concentration range between 10^−5 and 10^−11 M. The duplicate values were averaged. In either, HTS or CoRe format each compound was tested on at least 3 separate plates using cells from different passages to give an n≧3.

hEP4/Gqs5 = target: T4, hEP4/Gqs5 (Homo sapiens, UniProt P35408); assay: FLIPR calcium signal, hEP4; assay type: cell-based; conditions: FLIPR Ca2+ signal, HEK-293(EBNA); read-out: FUNCTIONAL EC50 HEP4
T4 construct: expressed in transfected cells; host or cells: HEK-293(EBNA)
T4 sequence (P35408 whole entry): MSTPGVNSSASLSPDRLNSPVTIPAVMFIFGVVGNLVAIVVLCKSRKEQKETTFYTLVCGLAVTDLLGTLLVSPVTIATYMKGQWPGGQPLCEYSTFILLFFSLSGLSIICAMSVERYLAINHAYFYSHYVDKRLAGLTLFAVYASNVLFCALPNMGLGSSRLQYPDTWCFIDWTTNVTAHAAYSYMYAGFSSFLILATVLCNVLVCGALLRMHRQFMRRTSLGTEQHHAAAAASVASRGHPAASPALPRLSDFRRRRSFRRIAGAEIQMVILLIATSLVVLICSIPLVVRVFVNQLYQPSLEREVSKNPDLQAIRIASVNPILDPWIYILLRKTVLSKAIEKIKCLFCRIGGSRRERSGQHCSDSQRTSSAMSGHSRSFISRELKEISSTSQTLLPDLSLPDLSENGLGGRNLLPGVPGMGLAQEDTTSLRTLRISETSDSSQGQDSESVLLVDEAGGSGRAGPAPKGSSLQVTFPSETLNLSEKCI
Procedure, shortened: as §1

hIP = target: T5, hIP (Homo sapiens, UniProt P43119); assay: FLIPR calcium signal, hIP; assay type: cell-based; conditions: FLIPR Ca2+ signal, HEK-293(EBNA); read-out: FUNCTIONAL EC50 HIP
T5 construct: expressed in transfected cells; host or cells: HEK-293(EBNA)
T5 sequence (P43119 whole entry): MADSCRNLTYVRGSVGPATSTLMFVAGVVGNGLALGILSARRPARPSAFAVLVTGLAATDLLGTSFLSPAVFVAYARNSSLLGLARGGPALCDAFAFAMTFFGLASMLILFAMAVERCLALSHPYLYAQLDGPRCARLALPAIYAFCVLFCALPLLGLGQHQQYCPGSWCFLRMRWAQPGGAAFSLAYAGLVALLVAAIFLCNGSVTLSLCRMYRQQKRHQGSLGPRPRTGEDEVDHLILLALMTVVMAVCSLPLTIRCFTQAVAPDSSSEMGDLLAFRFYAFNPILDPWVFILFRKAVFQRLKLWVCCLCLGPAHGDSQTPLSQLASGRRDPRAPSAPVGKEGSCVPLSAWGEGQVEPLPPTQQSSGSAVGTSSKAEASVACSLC
Experimental: as §2, §3, §4, §5

hTP = target: T6, hTP (Homo sapiens, UniProt P21731); assay: FLIPR calcium signal, hTP; assay type: cell-based
T6 construct: expressed in transfected cells; host or cells: HEK-293(EBNA)
T6 sequence (P21731 1-343): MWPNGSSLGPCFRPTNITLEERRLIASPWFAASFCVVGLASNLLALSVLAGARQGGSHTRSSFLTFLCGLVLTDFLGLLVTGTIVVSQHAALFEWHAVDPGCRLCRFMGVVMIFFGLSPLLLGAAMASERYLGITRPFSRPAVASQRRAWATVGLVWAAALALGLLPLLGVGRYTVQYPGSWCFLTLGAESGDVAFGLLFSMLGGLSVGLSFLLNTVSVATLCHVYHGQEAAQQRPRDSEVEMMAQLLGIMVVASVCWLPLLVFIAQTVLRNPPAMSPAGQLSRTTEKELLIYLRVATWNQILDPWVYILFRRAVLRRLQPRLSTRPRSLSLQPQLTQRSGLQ
Experimental: as §2, §3, §4, §5

hEP1 = target: T7, hEP1 (Homo sapiens, UniProt P34995); assay: FLIPR calcium signal, hEP1; assay type: cell-based; conditions: FLIPR Ca2+ signal, HEK-293(EBNA); read-out: FUNCTIONAL EC50 HEP1
T7 construct: expressed in transfected cells; host or cells: HEK-293(EBNA)
T7 sequence (P34995 1-402): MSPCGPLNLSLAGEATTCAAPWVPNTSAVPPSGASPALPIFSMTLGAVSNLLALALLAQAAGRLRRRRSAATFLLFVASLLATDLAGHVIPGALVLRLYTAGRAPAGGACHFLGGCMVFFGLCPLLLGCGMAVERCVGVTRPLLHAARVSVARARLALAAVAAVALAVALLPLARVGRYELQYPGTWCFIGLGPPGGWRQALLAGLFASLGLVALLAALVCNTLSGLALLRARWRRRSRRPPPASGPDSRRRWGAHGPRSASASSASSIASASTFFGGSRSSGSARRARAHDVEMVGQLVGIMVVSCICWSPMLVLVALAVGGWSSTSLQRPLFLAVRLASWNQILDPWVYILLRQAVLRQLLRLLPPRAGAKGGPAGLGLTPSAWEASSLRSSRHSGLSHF
Experimental: as §2, §3, §4, §5

human EP2 receptors = target: T8, human EP2 receptors (Homo sapiens, UniProt P43116); assay: Competition radioligand binding ([3H]PGE2), EP2; conditions: read-out: BINDING IC50 HEP2
T8 construct: expressed in transfected cells; host or cells: HEK 293
T8 sequence (P43116 whole entry): as the sequence (P43116 whole entry) above

EP4 receptors = target: T9, EP4 receptors (Homo sapiens, UniProt P35408); assay: Radioligand binding ([3H]PGE2), EP4; conditions: read-out: BINDING IC50 HEP4
T9 construct: expressed in transfected cells; host or cells: HEK-293
T9 sequence (P35408 whole entry): as the sequence (P35408 whole entry) above
Procedure, shortened: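 Membranes from HEK-293 cells stably expressing the human receptor, resuspended at 1 mg/ml protein in TME buffer pH 7.4. Competition against 5 nM [3H]PGE2 for 60 min at 25 °C, ended by filtration on GF/B filters; non-specific binding defined with 10^−5 M unlabeled PGE2.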

[1] = FLIPR Ca2+ signal, HEK-293(EBNA), read-out: FUNCTIONAL EC50 HEP2
[2] = FLIPR Ca2+ signal, HEK-293(EBNA), read-out: FUNCTIONAL EC50 HTP
[3] = read-out: FUNCTIONAL Ca2+ EC50 HEP2
[4] = read-out: FUNCTIONAL Ca2+ EC50 HTP

Structure (SMILES) | EC50 (hEP3A/Gqi5) [µM] | EC50 (hEP2/Gqs5; [1]) [µM] | EC50 (hTP; [2]) [µM] | EC50 (hEP1) [µM] | further results
CCCC1(C(O)c2cccc([C@H]3[C@H](O)CC(=O)[C@@H]3CCCCCCC(=O)OC)c2)CCC1 (some centres unmarked) | > 10 | > 10 |  |  | EC50 (hDP/Gqs5): > 10 µM; EC50 (hEP4/Gqs5): > 10 µM; EC50 (hIP): > 10 µM
CCCC1(C(O)c2cccc([C@@H]3[C@@H](C/C=C\CCCC(=O)OC)[C@H](Cl)C[C@H]3O)c2)CCC1 (some centres unmarked) | > 10 | > 10 | > 10 |  | 
CCCC1(C(O)c2cccc([C@@H]3[C@@H](C/C=C\CCCC(=O)O)[C@H](Cl)C[C@H]3O)c2)CCC1 (some centres unmarked) | 0.455 | 0.322 | > 10 |  | EC50 (hDP/Gqs5): > 10 µM
COC(=O)CCC/C=C\C[C@H]1C(=O)C[C@@H](O)[C@@H]1c1ccc(C(C)(C)C)cc1 |  | > 10 | > 10 |  | 
CC(C)(C)c1ccc([C@H]2[C@H](O)CC(=O)[C@@H]2C/C=C\CCCC(=O)O)cc1 |  | 1.71 |  | > 10 | 
COC(=O)CCCCCC[C@H]1C(=O)C[C@@H](O)[C@@H]1c1ccc(C(C)(C)C)cc1 | > 10 | 0.936 | > 10 |  | EC50 (hEP4/Gqs5): > 10 µM
CC(C)(C)c1ccc([C@H]2[C@H](O)CC(=O)[C@@H]2CCCCCCC(=O)O)cc1 | 3.39 | 0.102 | 4.27 | > 10 | EC50 (hIP): > 10 µM
CC(C)(C)c1ccc([C@@H]2[C@@H](C/C=C\CCCC(=O)O)[C@H](Cl)C[C@H]2O)cc1 | 2.05 | 0.118 | 1.27 | > 10 | EC50 (hDP/Gqs5): > 10 µM; EC50 (hEP4/Gqs5): > 10 µM
COC(=O)CCCCCC[C@H]1C(=O)C[C@@H](O)[C@@H]1c1ccc2c(c1)CCC2 | > 10 | > 10 | > 10 |  | EC50 (hEP4/Gqs5): > 10 µM
O=C(O)CCCCCC[C@@H]1[C@@H](c2ccc3c(c2)CCC3O)[C@H](O)C[C@H]1Cl (some centres unmarked) |  | 0.529 | 2.99 |  | IC50 (human EP2 receptors): 13.1 µM
COC(=O)CCCCCC[C@@H]1[C@@H](c2ccc3c(c2)CCC3O)[C@H](O)C[C@H]1Cl (some centres unmarked) |  |  | 17.5 |  | EC50 (hEP4/Gqs5): 22.5 µM
COC(=O)CCCCCC[C@@H]1[C@@H](c2ccc3c(c2)CCC3)[C@H](O)C[C@H]1Cl |  |  | 0.506 |  | IC50 (EP4 receptors): 13.1 µM
O=C(O)CCCCCC[C@@H]1[C@@H](c2ccc3c(c2)CCC3)[C@H](O)C[C@H]1Cl |  | 0.818 | 0.2 | 0.221 | IC50 (human EP2 receptors): 6.25 µM
O=C(O)CCCCCC[C@H]1C(=O)C[C@@H](O)[C@@H]1c1ccc(C2(O)CCC2)cc1 |  | > 10 |  |  | EC50 (hIP): > 10 µM
O=C(O)CCCCCC[C@@H]1[C@@H](c2ccc(C3(O)CCC3)cc2)[C@H](O)C[C@H]1Cl |  | 0.743 | > 10 |  | 
Cc1ccc([C@H]2[C@H](O)CC(=O)[C@@H]2CCCCCCC(=O)O)cc1 |  | 3.13 | 0.094 | 1.87 | 
COC(=O)CCCCCC[C@H]1C(=O)CC[C@@H]1c1ccc(C(O)C2CCCCC2)cc1 (some centres unmarked) |  |  |  |  | EC50 (hEP2/Gqs5; [3]): > 10 µM; EC50 (hTP; [4]): > 10 µM
O=C(O)CCCCCC[C@H]1C(=O)CC[C@@H]1c1ccc(C(O)C2CCCCC2)cc1 (some centres unmarked) |  |  |  |  | EC50 (hEP2/Gqs5; [3]): > 10 µM; EC50 (hTP; [4]): > 10 µM
CC(C)(C)c1ccc([C@@H]2[C@@H](CCCCCCC(=O)O)[C@H](Cl)C[C@H]2O)cc1 [drawing 70] | > 10 | 0.264 | > 10 | > 10 | EC50 (hDP/Gqs5): > 10 µM
